Where two headings read alike, the source gives them in different places.
What was measured:
[1] = test system: E. cloacae GN7471; assay: Sensitivity test (agar dilution); format: cell-based, Enterobacter cloacae; details: Enterobacter cloacae, E. cloacae GN7471
Experimental: (§1) The antibacterial activities were tested against various 18 bacteria (27 standard strains) which are representative bacteria caused clinically infectious disease (Staphylococcus aureus 3 strains, Staphylococcus epidermidis 1 strain, Micrococcus luteus 1 strain, Streptococcus pyogenes 1 strain, Enterococcus faecalis 1 strain, Enterococcus faecium 1 strain, Bacillus subtilis 1 strain, Escherichia coli 3 strains, Klebsiella pneumoniae 1 strain, Proteus mirabilis 1 strain, Proteus vulgaris 2 strains, Pseudomonas aeruginosa 3 strains, Serratia marcescens 2 strains, Enterobacter aerogenes 1 strain, Stenotrophomonas maltophilia 1 strain, Enterobacter cloacae 1 strain, Citrobacter freundii 1 strain, Moraxella catarrhalis 2 strains).
(§2) According to the standard method of Japan Chemotherapeutic Society (Chemotherapy, vol. […], p 76-79 (1981)) the test was carried out using the agar dilution method. After dissolving test samples in distilled water, agar medium containing the test samples was prepared in such a manner that the final concentration became twice serial dilution by pouring serially diluted combination drug solution or a single drug solution into agar medium. As agar medium was used Mueller Hinton Agar medium (MHA). Then, each strain was cultivated over night at 37° C. in an incubator and suspended in buffered saline solution with gelatin (BSG) in the concentration of about 10^6 CFU/ml. The suspension (about 5 μl) containing test strains was inoculated to the medium containing the test samples by Micro Planter.
(§3) When the sample is subjected to sensitivity test, this mixed solution was diluted by twice serial dilution method.
Furthermore, when the drug is solely used, each test sample was used as it is, and diluted by twice serial dilution method from the maximum concentration to the minimum concentration.
(§4) FIC index based on MIC value was calculated. […] Namely, when FIC index calculated by the following formula is equal or less than 1, the enhanced effect of the combination drug in said ratio is considered as positive. When FIC index is over 1, the enhanced effect of the combination drug in said ratio is considered as negative.
(§5) Formula of FIC index: FIC index=(MIC of Drug A in combination/MIC of Drug A alone)+(MIC of Drug B in combination/MIC of Drug B alone) N.C. in tables means being not calculated.

[2] = test system: 18 bacteria (27 standard strains); assay: Sensitivity test, combination effect over the standard strains; format: cell-based; details: in combination with compound 1, standard strains
Experimental: as §1, §2, §3, §4, §5

With `CC(C)(O/N=C(\C(=O)N[C@@H]1C(=O)N2C(C(=O)[O-])=C(C[n+]3ccccc3)CS[C@H]12)c1csc(N)n1)C(=O)O` [CAZ, ceftazidime] the MIC ([1]; GN7471, Concomitant (CAZ:SM = 1:1), read-out: MIC concomitant) was 8 µg/mL, the MIC ([1]; GN7471, drug alone, read-out: MIC alone) was 32 µg/mL and the combination effect [2] was “antagonism was recognized”.
